How the values were obtained:
RS4; 11 cells = assay: Test 2: inhibition of cell proliferation, RS4;11; format: cell-based; details: for IC50: RS4;11 cells, 7 days, PrestoBlue cell viability; for cell proliferation inhibition activity, good (in words) / cell proliferation inhibitory activity, potent (in words): summary of Test 2 table, RS4;11 and MOLM-13
Method: (§1) Test 2: Test for Evaluating the Inhibition of Cell Proliferation
(§2) RS4; 11 cells were obtained from American Type Culture Collection (ATCC). The cells were cultured at 37° C. in the presence of 5% CO2 in RPMI 1640 medium containing 10% fetal bovine serum and 1% penicillin/streptomycin. MOLM-13 cells were separately obtained from DSMZ (Deutsche Sammlung von Mikroorganismen und Zellkulturen GmbH). The cells were cultured at 37° C. in the presence of 5% CO2 in RPMI 1640 medium containing […] and 1% penicillin/streptomycin.
(§3) The cells were plated to a 96-well plate in 2000 cells/well, each test compound was added thereto to adjust the final concentration of DMSO to 0.1% of DMSO, and the cells were cultured for 7 days. After the cultivation, the cell viability was calculated with PrestoBlue™ Cell Viability Reagent (Invitrogen, A13261). The IC50 value was calculated from a survival curve, that corresponds to the concentration of the test compound at which the cell proliferation inhibition rate is 50%.

MOLM-13 cells = assay: Test 2: inhibition of cell proliferation, MOLM-13; format: cell-based; details: 7 days, PrestoBlue cell viability
Method: as §1, §2, §3

[1] = Test 4: pharmacokinetic study, oral, mouse; details: for AUC(0-t): male, NOD.CB17-Prkdcscid/J, plasma, po, 100 mg/kg; for compound-exposure in plasma (in words): summary of Test 4 table, oral 100 mg/kg
Method: Test 4: Pharmacokinetic Study
The test compound suspended in 0.5% methylcellulose was orally administered to 7-week-old male NOD. CB17-Prkdcscid/J mouse in a dose of 100 mg/kg. The blood sample was taken from jugular vein without anesthesia over time for 24 hours. The blood sample was centrifuged to obtain plasma. The plasma was pre-treated by methanol extraction method, and then analyzed with an LC-MS/MS to determine the concentration of the test compound. Based on the data from 0 hour after the administration until the time (t) when there was the final detection in the plasma, AUC was calculated by trapezoidal method.

Row | SMILES | IC50 (RS4; 11 cells; Homo sapiens, 168 h) [nM] | IC50 (MOLM-13 cells; Homo sapiens, 168 h) [nM] | cell proliferation inhibition activity, good (in words) (RS4; 11 cells) | cell proliferation inhibitory activity, potent (in words) (RS4; 11 cells) | AUC(0-t) [1] [ng·h/mL] | compound-exposure in plasma (in words) [1] | IC50 (RS4; 11 cells) [nM] | IC50 (MOLM-13 cells) [nM]
1 | C=C1C[C@@H]2CC[C@H]1[C@@H](C(=O)N1CCC3(CC1)CN(c1c(C#N)cnc4sc(CC(F)(F)F)cc14)C3)N2 [Example 24, 4-{7-[(1S,3S,4R)-5-(^2H2)methylidene-2-azabicyclo[2.2.2]octane-3-carbonyl]-2,7-diazaspiro[3.5]nonan-2-yl}-2-(2,2,2-trifluoroethyl)thieno[2,3-b]pyridine-5-carbonitrile] |  |  |  |  |  |  | < 30 | < 30
2 | C=C1C[C@@H]2CC[C@H]1[C@@H](C(=O)N1CC3(C1)CN(c1c(C(F)(F)F)cnc4sc(CC(F)(F)F)cc14)C3)N2 [Example 17, [(1S,3S,4R)-5-(^2H2)methylidene-2-azabicyclo[2.2.2]octan-3-yl]{6-[2-(2,2,2-trifluoroethyl)-5-(trifluoromethyl)thieno[2,3-b]pyridin-4-yl]-2,6-diazaspiro[3.3]heptan-2-yl}methanone] |  |  |  |  |  |  | < 30 | < 30
3 | C=C1C[C@@H]2CC[C@H]1[C@@H](C(=O)N1CCC3(CC1)CN(c1c(C(F)(F)F)cnc4sc(CC(F)(F)F)cc14)C3)N2 [Example 21, [(1S,3S,4R)-5-(^2H2)methylidene-2-azabicyclo[2.2.2]octan-3-yl]{2-[2-(2,2,2-trifluoroethyl)-5-(trifluoromethyl)thieno[2,3-b]pyridin-4-yl]-2,7-diazaspiro[3.5]nonan-7-yl}methanone] |  |  |  |  |  |  | < 30 | < 30
4 | C=C1C[C@@H]2CC[C@H]1[C@@H](C(=O)N1CCC3(CC1)CN(c1c(C(F)(F)F)cnc4sc(CC(F)(F)F)cc14)C3)N2 [Example 27, [(1S,3S,4R)-5-Methylidene-2-azabicyclo[2.2.2]octan-3-yl]{2-[2-(2,2,2-trifluoroethyl)-5-(trifluoromethyl)thieno[2,3-b]pyridin-4-yl]-2,7-diazaspiro[3.5]nonan-7-yl}methanone] | 50 | 70 | good cell proliferation inhibition activity | potent cell proliferation inhibitory activity | 17300 | good compound-exposure in plasma |  | 
5 | [2H]C([2H])=C1C[C@@H]2CC[C@H]1[C@@H](C(=O)N1CC3(C1)CN(c1c(C(F)(F)F)cnc4sc(CC(F)(F)F)cc14)C3)N2 [Example 17, [(1S,3S,4R)-5-(^2H2)methylidene-2-azabicyclo[2.2.2]octan-3-yl]{6-[2-(2,2,2-trifluoroethyl)-5-(trifluoromethyl)thieno[2,3-b]pyridin-4-yl]-2,6-diazaspiro[3.3]heptan-2-yl}methanone] |  |  | good cell proliferation inhibition activity | potent cell proliferation inhibitory activity |  |  |  | 

Now from value to compound, other results behind:

Row | IC50 (RS4; 11 cells; Homo sapiens, 168 h) [nM] | IC50 (MOLM-13 cells; Homo sapiens, 168 h) [nM] | SMILES | cell proliferation inhibition activity, good (in words) (RS4; 11 cells) | cell proliferation inhibitory activity, potent (in words) (RS4; 11 cells) | AUC(0-t) [1] [ng·h/mL] | compound-exposure in plasma (in words) [1] | IC50 (RS4; 11 cells) [nM] | IC50 (MOLM-13 cells) [nM]
6 | < 30 | 30 | O=C([C@H]1N[C@H]2CC[C@@H]1C[C@@H]2CC1CC1)N1CCC2(CC1)CN(c1c(C(F)(F)F)cnc3sc(CC(F)(F)F)cc13)C2 [Example 22, [(1S,3S,4R,6S)-6-(cyclopropylmethyl)-2-azabicyclo[2.2.2]octan-3-yl]{2-[2-(2,2,2-trifluoroethyl)-5-(trifluoromethyl)thieno[2,3-b]pyridin-4-yl]-2,7-diazaspiro[3.5]nonan-7-yl}methanone] | good cell proliferation inhibition activity | potent cell proliferation inhibitory activity |  |  |  | 
7 | 70 | 60 | C=C1C[C@@H]2CC[C@H]1[C@@H](C(=O)N1CCC3(CC1)CN(c1c(C#N)cnc4sc(CC(F)(F)F)cc14)C3)N2 [Example 28, 4-{7-[(1S,3S,4R)-5-Methylidene-2-azabicyclo[2.2.2]octane-3-carbonyl]-2,7-diazaspiro[3.5]nonan-2-yl}-2-(2,2,2-trifluoroethyl)thieno[2,3-b]pyridine-5-carbonitrile] |  |  | 11600 | good compound-exposure in plasma |  | 
8 | 300 | 300 | C=C1C[C@@H]2C[C@H]1[C@@H](C(=O)N1CCC3(CC1)CN(c1c(C#N)cnc4sc(CC(F)(F)F)cc14)C3)N2 [Example 26, 4-{7-[(1S,3S,4R)-5-methylidene-2-azabicyclo[2.2.1]heptane-3-carbonyl]-2,7-diazaspiro[3.5]nonan-2-yl}-2-(2,2,2-trifluoroethyl)thieno[2,3-b]pyridine-5-carbonitrile] |  |  |  |  |  | 
9 | < 30 | 40 | N#Cc1cnc2sc(CC(F)(F)F)cc2c1N1CC2(CCN(C(=O)[C@H]3N[C@H]4CC[C@@H]3C[C@@H]4CC3CC3)CC2)C1 [Example 25, 4-{7-[(1S,3S,4R,6S)-6-(cyclopropylmethyl)-2-azabicyclo[2.2.2]octane-3-carbonyl]-2,7-diazaspiro[3.5]nonan-2-yl}-2-(2,2,2-trifluoroethyl)thieno[2,3-b]pyridine-5-carbonitrile] | good cell proliferation inhibition activity | potent cell proliferation inhibitory activity |  |  |  | 
10 | 100 | 110 | C=C1C[C@@H]2C[C@H]1[C@@H](C(=O)N1CCC3(CC1)CN(c1c(C(F)(F)F)cnc4sc(CC(F)(F)F)cc14)C3)N2 [Example 23, [(1S,3S,4R)-5-methylidene-2-azabicyclo[2.2.1]heptan-3-yl]{2-[2-(2,2,2-trifluoroethyl)-5-(trifluoromethyl)thieno[2,3-b]pyridin-4-yl]-2,7-diazaspiro[3.5]nonan-7-yl}methanone] |  |  |  |  |  | 
